{"source": "patent US20230248814A1", "about": "“COMPOSITIONS AND METHODS FOR TREATING MERKEL CELL CARCINOMA (MCC) USING HLA CLASS I SPECIFIC EPITOPES” (The Broad Institute, Inc., priority 2020, published 2023)", "format_in_all_cases": "cell-based, human", "key": {"[1]": {"tested_on": "MCC lines (MCC-301, -277, -290, -320)", "assay": "USP7 inhibitor experiments: flow cytometry for surface HLA-I in MCC lines"}, "MKL-1 cells [2]": {"tested_on": "MKL-1 cells", "assay": "USP7 inhibitor flow cytometry for surface HLA-I in MKL-1 p53-WT control and p53-KO lines", "conditions": "MKL-1 TP53-KO and TP53-WT lines; 100 nM", "procedure": "For MKL-1 USP7 inhibitor experiments, p53-WT control lines (WT, scrambled, AAVS1) and three p53-KO lines were treated with USP7 inhibitors and assessed by flow cytometry for surface HLA I as described above for MCC-301."}, "MKL-1 cells [3]": {"tested_on": "MKL-1 cells", "assay": "Cell cycle analysis (EdU/DAPI flow cytometry) of MKL-1 control or p53 KO cells", "conditions": "MKL-1 TP53-WT and TP53-KO; 100 nM; three days", "procedure": "Cell cycle analysis. 1 million MKL-1 control or p53 KO cells were plated and treated with DMSO, XL177A (100 nM) or XL177B (100 nM) for three days. During the last hour of the three- day treatment, the cells were pulsed with 10 µM EdU nucleotide. The cells were collected by centrifugation, treated with Accutase™ (Stem Cell Technologies) to break apart clumps, washed with PBS and fixed using 4% Formaldehyde solution in PBS at Room temperature for 15 mins. Cells were washed with 1% BSA in PBS and resuspended in 70% ice cold ethanol and incubated at -20° C. overnight for additional fixing and permeabilization. The cells were stored in 70% ethanol at -20° C. until the day the data was acquired. On the day of data acquisition, the cells were collected by centrifugation and washed twice with PBS. The incorporated EdU in the cells were labeled with a CLICK reaction cocktail (1 mM CuSO4, 100 µM THPTA, 100 mM sodium ascorbate, and 2.2 µM Alexa 647 azide in PBS) at room temperature with rocking for 30 minutes. The samples were then washed with 1% BSA in PBS once followed by two washes with PBS and incubated with a 1 µg/ml DAPI, 100 ng/ml RNase A solution for one hour at Room temperature to stain the DNA. The samples were then passed through strainer tubes and analyzed using a BD Fortessa analyzer. The flow cytometry data was analyzed using the FlowJo Software. […]"}, "MCC-301 cells": {"tested_on": "MCC-301 cells", "assay": "HLA-I-bound peptidome (TMT LC-MS/MS) of USP7 inhibitor treated MCC-301 cells", "procedure": "Immunopeptidomes of USP7 inhibitor treated cell lines were eluted as described above, followed by labeling with TMT6 reagent (Thermo Fisher; 126-USP7iA, 127-WT, 128 USP7iA, 129 WT, 130-USP7iB, 131 USP7iB) and then pooled for subsequent fractionation using basic reversed phase fractionation with increasing concentrations of acetonitrile (10%, 15% and 50%) in 5 mM ammonium formate (pH 10) and analysis on an Orbitrap Exploris 480 with FAIMSpro. Data acquisition parameters were as above with NCE set to 34 and 2 second dynamic exclusion.\nMass spectra were interpreted using Spectrum Mill software package v7.1 pre-Release (Broad Institute, Cambridge, MA). […] Merging of similar spectra with the same precursor m/z acquired in the same chromatographic peak was disabled. MS/MS spectra were searched against a protein sequence database that contained 90,904 entries, including all UCSC Genome Browser genes with hg19 annotation of the genome and its protein coding transcripts (52,788 entries), common human virus sequences (30,181 entries), recurrently mutated proteins observed in tumors from 26 tissues (4,595 entries), 264 common laboratory contaminants as well as protein sequences containing somatic mutations detected in MCC cell lines (3,076 entries). MS/MS search parameters included: no-enzyme specificity; ESI-QEXACTIVE-HCD-HLA-v3 instrument scoring; fixed modification: […]; variable modifications: oxidation of methionine, carbamidomethylation of cysteine and pyroglutamic acid at peptide N-terminal glutamine; precursor mass tolerance of ±10 ppm; product mass tolerance of ±10 ppm, and a minimum matched peak intensity of 30%. Peptide spectrum matches (PSMs) for individual spectra were automatically designated as confidently assigned using the Spectrum Mill auto-validation module to apply target-decoy based FDR estimation at the PSM level of <1% FDR. Peptide auto-validation was done separately for each sample with an auto thresholds strategy to optimize score and delta Rank1 - Rank2 score thresholds separately for each precursor charge state (1 through 4) across all LC-MS/MS runs per sample. […] Peptide and PSM exports were filtered for contaminants including potential carry over tryptic peptides and peptides identified in a blank bead sample. For TMT-labeled samples, peptides derived from keratin proteins were removed and TMT intensity values were normalized to the global median. P-values were calculated using in house software based on the limma package in R."}, "[4]": {"conditions": "100 nM, 3 days, two MCPyV+ lines (MCC-301, -277)"}}}
{"smiles": "CN1CCN(CCC(=O)Nc2ccc3c(=O)n(CC4(O)CCN(C(=O)[C@@H](CCCNC(=O)c5ccc6c(Cl)c7c(nc6c5)CCCC7)Cc5ccccc5)CC4)cnc3c2)CC1", "note": "[XL177A]", "values": [{"measurement": "increase in expression of surface HLA-I relative to DMSO (mean)", "setting": "[1]; [4]", "result": 2.0, "unit": "fold"}, {"measurement": "increase in expression of surface HLA-I relative to DMSO (range)", "setting": "[1]; [4]", "result": "1.78 - 2.27 fold"}, {"measurement": "increase in MFI (HLA-ABC) by flow cytometry", "setting": "[1]; MCC-301, 100 nM, 4 days", "result": "greater than twofold increase"}, {"measurement": "HLA-I levels", "setting": "[1]; MCPyV- line MCC-290, 3 days", "result": "more modest increase in HLA-I levels"}, {"measurement": "HLA-I levels", "setting": "[1]; MCPyV- line MCC-320, 3 days", "result": "but not MCC-320"}, {"measurement": "surface HLA-I relative to XL177B and DMSO", "setting": "MKL-1 cells [2]", "result": "increased surface HLA-I"}, {"measurement": "cell cycle phase distribution", "setting": "MKL-1 cells [3]", "result": "slight cell cycle shifts from S to G1 phase"}, {"measurement": "abundances of HLA-I displayed peptides compared to XL177B and untreated cells", "setting": "MCC-301 cells", "result": "higher abundances of displayed peptides"}, {"measurement": "frequency of peptides displayed on each HLA-I gene (HLA-A, -B, -C)", "setting": "MCC-301 cells", "result": "did not affect"}, {"measurement": "peptides more abundant than in untreated cells, out of 282 significantly differing (P < 0.05)", "setting": "MCC-301 cells", "result": 270, "unit": "peptides"}, {"measurement": "share of the 282 significantly differing peptides more abundant than in untreated cells", "setting": "MCC-301 cells", "result": 95.7, "unit": "%"}]}
